Usually IC50 stands for the midpoint of a concentration-inhibition curve.

For the first assay, the system named is Toledo cells. Put plainly: Cell proliferation assay, Toledo cells (MTS, 72 h). In kind it is cell-based. Conditions: Homo sapiens, Toledo cells, MTS, read-out: Toledo IC50. In outline: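 Toledo cells (30000/well, RPMI-1640 with 10% FBS) were preincubated for 4 h. They were then exposed to nine compound concentrations from 10000 to 1.5 nM for 72 h at 37 °C, 5% CO2. MTS was added for 2 h and absorbance read at 490 nm to give IC50.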
`CC(C)c1ccccc1[C@@H]1CCCN1C1CC2(CCN(c3ccc(C(=O)NS(=O)(=O)c4cc5c(c([N+](=O)[O-])c4)N[C@@H]([C@H]4CC[C@](C)(O)CC4)CO5)c(Oc4cc5cc[nH]c5nc4N4CCOCC4)c3)CC2)C1` (single isomer, unassigned) [Example D-57, N-(((S)-3-((1r,4S)-4-hydroxy-4-methylcyclohexyl)-5-nitro-3,4-dihydro-2H-benzo[b][1,4]oxazin-7-yl)sulfonyl)-4-(2-((R or S)-2-(2-isopropylphenyl)pyrrolidin-1-yl)-7-azaspiro[3.5]nonan-7-yl)-2-((6-morpholino-1H-pyrrolo [2,3-b]pyridin-5-yl)oxy)benzamide]: the IC50 is 1 nM.
Still for that read-out and setting: the same measure for `CC(C)c1ccccc1[C@@H]1CCCN1C1CC2(CCN(c3ccc(C(=O)NS(=O)(=O)c4cc5c(c([N+](=O)[O-])c4)N[C@@H]([C@H]4CC[C@](C)(O)CC4)CO5)c(Oc4cc5cc[nH]c5nc4OC4CC4)c3)CC2)C1` (single isomer, unassigned) [Example D-67, 2-((6-cyclopropoxy-1H-pyrrolo[2,3-b]pyridin-5-yl)oxy)-N-(((S)-3-((1r,4S)-4-hydroxy-4-methylcyclohexyl)-5-nitro-3,4-dihydro-2H-benzo [b][1,4]oxazin-7-yl)sulfonyl)-4-(2-((R or S)-2-(2-isopropylphenyl)pyrrolidin-1-yl)-7-azaspiro[3.5]nonan-7-yl)benzamide]: 1 nM; for `CC(C)c1ccccc1[C@@H]1CCCN1C1CC2(CCN(c3ccc(C(=O)NS(=O)(=O)c4cc5c(c([N+](=O)[O-])c4)N[C@@H]([C@H]4CC[C@](C)(O)CC4)CO5)c(Oc4cc5cc[nH]c5nc4OC[C@@H](C)O)c3)CC2)C1` (single isomer, unassigned) [Example D-69, N-(((S)-3-((1r,4S)-4-hydroxy-4-methylcyclohexyl)-5-nitro-3,4-dihydro-2H-benzo[b][1,4]oxazin-7-yl)sulfonyl)-2-((6-((7)-2-hydroxypropoxy)-1H-pyrrolo[2,3-b]pyridin-5-yl)oxy)-4-(2-((R or S)-2-(2-isopropylphenyl)pyrrolidin-1-yl)-7-azaspiro[3.5]nonan-7-yl)benzamide]: 1 nM.
On the same count and under the same terms, the same measure for `COc1nc2[nH]ccc2cc1Oc1cc(N2CCC3(CC2)CC(N2CCOC[C@H]2c2ccccc2C(C)C)C3)ccc1C(=O)NS(=O)(=O)c1cnc(NC[C@H]2CC[C@](C)(O)CC2)c([N+](=O)[O-])c1` (single isomer, unassigned) [Example A-125, N-((6-((((1r,4r)-4-hydroxy-4-methyl-cyclohexyl)methyl)amino)-5-nitropyridin-3-yl)sulfonyl)-4-(2-((R or S)-3-(2-isopropylphenyl)morpholino)-7-azaspiro[3.5]nonan-7-yl)-2-((6-methoxy-1H-pyrrolo[2,3-b]pyridin-5-yl)oxy)benzamide]: 2 nM; for `COCCNc1nc2[nH]ccc2cc1Oc1cc(N2CCC3(CC2)CC(N2CCC[C@H]2c2ccccc2C(C)C)C3)ccc1C(=O)NS(=O)(=O)c1cc2c(c([N+](=O)[O-])c1)N[C@@H]([C@H]1CC[C@](C)(O)CC1)CO2` (single isomer, unassigned) [Example D-56, N-(((S)-3-((1r,4S)-4-hydroxy-4-methylcyclohexyl)-5-nitro-3,4-dihydro-2H-benzo[b][1,4]oxazin-7-yl)sulfonyl)-4-(2-((R or S)-2-(2-isopropylphenyl)pyrrolidin-1-yl)-7-azaspiro[3.5]nonan-7-yl)-2-((6-((2-methoxyethyl)amino)-1H-pyrrolo[2,3-b]pyridin-5-yl)oxy)benzamide]: 1 nM.
The same measure, in the same setting: the same measure for `CC(C)c1ccccc1C1CCCN1C1CC2(CCN(c3ccc(C(=O)NS(=O)(=O)c4cc5c(c([N+](=O)[O-])c4)N[C@@H](C4CCC(F)(F)CC4)CO5)c(Oc4cnc5[nH]cc(F)c5c4)c3)CC2)C1` (single isomer, unassigned) [Example D-47, N-(((S)-3-(4,4-difluorocyclohexyl)-5-nitro-3,4-dihydro-2H-benzo [b][1,4]oxazin-7-yl)sulfonyl)-2-((3-fluoro-1H-pyrrolo[2,3-b]pyridin-5-yl)oxy)-4-(2-((R or S)-2-(2-isopropylphenyl)pyrrolidin-1-yl)-7-azaspiro[3.5]nonan-7-yl)benzamide]: 1 nM; for `CC(C)c1ccccc1[C@@H]1CCCN1C1CC2(CCN(c3ccc(C(=O)NS(=O)(=O)c4cc5c(c([N+](=O)[O-])c4)N[C@@H]([C@H]4CC[C@](C)(O)CC4)CO5)c(Oc4cc5cc[nH]c5nc4OC[C@@H]4COCCN4C(=O)OC(C)(C)C)c3)CC2)C1` (single isomer, unassigned) [Example D-215, tert-butyl (S)-3-(((5-(2-((((S)-3-((1r,4S)-4-hydroxy-4-methylcyclohexyl)-5-nitro-3,4-dihydro-2H-benzo[b][1,4]oxazin-7-yl)sulfonyl)carbamoyl)-5-(2-((R or S)-2-(2-isopropylphenyl)pyrrolidin-1-yl)-7-azaspiro[3.5]nonan-7-yl)phenoxy)-1H-pyrrolo[2,3-b]pyridin-6-yl)oxy)methyl) morpholine-4-carboxylate]: 1 nM; for `CC(C)c1ccccc1[C@@H]1CCCN1C1CC2(CCN(c3ccc(C(=O)NS(=O)(=O)c4cc5c(c([N+](=O)[O-])c4)N[C@@H]([C@H]4CC[C@](C)(O)CC4)CO5)c(Oc4cc5cc[nH]c5nc4O[C@H]4CCNC4)c3)CC2)C1` (single isomer, unassigned) [Example D-225, N-(((S)-3-((1r,4S)-4-hydroxy-4-methylcyclohexyl)-5-nitro-3,4-dihydro-2H-benzo[b][1,4]oxazin-7-yl)sulfonyl)-4-(2-((R or S)-2-(2-isopropylphenyl)pyrrolidin-1-yl)-7-azaspiro[3.5]nonan-7-yl)-2-((6-(((S)-pyrrolidin-3-yl)oxy)-1H-pyrrolo[2,3-b]pyridin-5-yl)oxy)benzamide]: 1 nM.
Take `CSc1nc2[nH]ccc2cc1Oc1cc(N2CCC3(CC2)CC(N2CCC[C@H]2c2ccccc2C(C)C)C3)ccc1C(=O)NS(=O)(=O)c1cc2c(c([N+](=O)[O-])c1)N[C@@H]([C@H]1CC[C@](C)(O)CC1)CO2` (single isomer, unassigned) [Example D-191, N-(((S)-3-((1r,4S)-4-hydroxy-4-methylcyclohexyl)-5-nitro-3,4-dihydro-2H-benzo[b][1,4]oxazin-7-yl)sulfonyl)-4-(2-((R or S)-2-(2-isopropylphenyl)pyrrolidin-1-yl)-7-azaspiro[3.5]nonan-7-yl)-2-((6-(methylthio)-1H-pyrrolo [2,3-b]pyridin-5-yl)oxy)benzamide]: the concentration for half-maximal inhibition (IC50) is 1 nM.
In the case of `COc1nc2[nH]ccc2cc1Oc1cc(N2CCC3(CC2)CN([C@H]2CCC[C@H]2c2ccccc2C(C)C)C3)ccc1C(=O)NS(=O)(=O)c1ccc(NC[C@H]2CC[C@](C)(O)CC2)c([N+](=O)[O-])c1` (single isomer, unassigned) [Example D-91, N-((4-((((1r,4r)-4-hydroxy-4-methylcyclohexyl)methyl)amino)-3-nitrophenyl)sulfonyl)-4-(2-((1S,2S or 1R,2R)-2-(2-isopropylphenyl)cyclopentyl)-2,7-diazaspiro[3.5]nonan-7-yl)-2-((6-methoxy-177-pyrrolo [2,3-b]pyridin-5-yl)oxy)benzamide], the 50% inhibitory concentration (IC50) came to 1 nM.
On the same count and under the same terms, the same measure for `CC(C)c1ccccc1[C@@H]1CC[C@@H](CO)N1C1CC2(CCN(c3ccc(C(=O)NS(=O)(=O)c4cc5c(c([N+](=O)[O-])c4)N[C@@H]([C@H]4CC[C@](C)(O)CC4)CO5)c(Oc4cnc5[nH]cc(F)c5c4)c3)CC2)C1` [Example D-253, 2-((3-fluoro-1H-pyrrolo[2,3-b]pyridin-5-yl)oxy)-N-(((S)-3-((1r,4S)-4-hydroxy-4-methylcyclohexyl)-5-nitro-3,4-dihydro-2H-benzo[b] [1,4]oxazin-7-yl)sulfonyl)-4-(2-((2S,5S)-2-(hydroxymethyl)-5-(2-isopropylphenyl)pyrrolidin-1-yl)-7-azaspiro[3.5]nonan-7-yl)benzamide]: 1 nM; for `CC(C)c1ccccc1[C@@H]1COCCN1C1CC2(CCN(c3ccc(C(=O)NS(=O)(=O)c4cc5c(c([N+](=O)[O-])c4)N[C@@H]([C@H]4CC[C@](C)(O)CC4)CO5)c(Oc4cnc5[nH]cc(F)c5c4)c3)CC2)C1` (single isomer, unassigned) [Example D-1, 2-((3-fluoro-1H-pyrrolo[2,3-b]pyridin-5-yl)oxy)-N-(((S)-3-((1r,4S)-4-hydroxy-4-methylcyclohexyl)-5-nitro-3,4-dihydro-2H-benzo[b] [1,4]oxazin-7-yl)sulfonyl)-4-(2-((R or S)-3-(2-isopropylphenyl)morpholino)-7-azaspiro[3.5]nonan-7-yl) benzamide]: 1 nM; for `CC(C)c1ccccc1[C@@H]1CCCN1C1CC2(CCN(c3ccc(C(=O)NS(=O)(=O)c4cc5c(c([N+](=O)[O-])c4)S[C@@H]([C@H]4CC[C@](C)(O)CC4)CO5)c(Oc4cnc5[nH]cc(F)c5c4)c3)CC2)C1` (single isomer, unassigned) [Example E-2, 2-((3-fluoro-1H-pyrrolo[2,3-b]pyridin-5-yl)oxy)-N-(((S)-3-((1r,4S)-4-hydroxy-4-methylcyclohexyl)-5-nitro-2,3-dihydrobenzo[b][1,4]oxathiin-7-yl)sulfonyl)-4-(2-((R or S)-2-(2-isopropylphenyl)pyrrolidin-1-yl)-7-azaspiro[3.5]nonan-7-yl)benzamide]: 1 nM.

The assay is the same for the next values; noted with them: Toledo cells, MTS, read-out: Toledo IC50.
As for “N-(((S)-3-((1r,4S)-4-hydroxy-4- methylcyclohexyl)-5-nitro-3,4- dihydro-2H-benzo[b][1,4]oxazin-7- yl)sulfonyl)-4-(2-((R or S)- 2-(2-isopropylphenyl)pyrrolidin- 1-yl)-7-azaspiro[3.5]nonan-7- yl)-2-((6-(((R)-tetrahydrofuran-3- yl)oxy)-1H-pyrrolo[2,3-b]pyridin- 5-yl)oxy)benzamide [Example D-73]”, the IC50 stood at 1 nM.

These data come from US20230159527A1, “COMPOUNDS AS BCL-2 INHIBITORS” (Fochon Pharmaceuticals, Ltd., priority 2020, published 2023).
